Source: patent US20240391978A1, “APOLIPOPROTEIN FUSION PROTEINS FOR CELL-SPECIFIC IMMUNE REGULATION” (BIO-TRIP B.V., priority 2021, published 2024)

Tests used:
Macrophages = experiment: Macrophage surface marker flow cytometry; assay type: cell-based, human; conditions: data not shown
Description: Primary monocyte-derived dendritic cell (moDC) generation: For experiments were moDCs were compared to macrophages (untrained control or IL4-trained), moDCs were differentiated as follows. First, negatively selected monocytes were obtained as described above. […] The cells were differentiated until day 6, with one medium refresh on day 3. On day 6, the non-adherent cells were harvested in addition to the adherent cells (as described above). The moDCs and macrophages were then subjected to analysis by flow cytometry as described below.
Macrophage surface marker flow cytometry: Macrophages were harvested as described above and transferred to a v-bottom 96 well plate for staining. The cells were centrifuged at 1500 rpm, 5 minutes, 4° C. The supernatant was removed, and the cells were washed once with 200 μl PBA (PBS pH 7.4, 1% w/v BSA (Sigma)).
Fc-receptors were blocked by incubation in PBS supplemented with 10% human pooled serum for 15 minutes at 4° C. After washing once more, surface markers and viability were stained for in a volume of 50 μl for 30 minutes at 4° C., using the antibodies and viability dye described in table 3.
Following two washes, the cells were resuspended in 150 μl PEA and measured on a Cytoflex flow cytometer (Eeckman Coulter) or ED FACSVerse system (ED Eiosciences). Compensation was performed using VersaComp compensation beads (Eeckman Coulter) for single antibody stains; a mixture of live and heat-killed cells was used for single stains of the viability dye (as per the manufacturer's recommendations). Data analysis was performed in Flowjo (v10.7.1, ED Eiosciences) Our gating strategy was as follows: first, a time gate was used if necessary. Then, single cell events were selected using subsequent FSC-A/SSC-A and FSC-A/FSC-H gates. Dead cells were removed from the analysis by selecting the viability dye-negative population. Geometric mean fluorescence intensities were calculated as a measure of surface marker expression.

TNF = experiment: ChIP-qPCR of H3K9me3 at TNF; assay type: cell-based, human; conditions: IL4-induced trained immunity
Protocol: Chromatin immunoprecipitation: Macrophages were harvested as described above and resuspended in RPMI+++. The cells were fixed for 10 minutes in 1% methanol-free formaldehyde. The reaction was then quenched for 3 minutes by adding 125 mM glycine. The fixed cells were washed three times with ice-cold PBS and lysed at approximately 15*10^6 cells/ml in lysis buffer (20 mM HEPES pH 7.6, 1% SDS, 1× protease inhibitor cocktail (PIC; Roche)), sonicated (Bioruptor Pico, Diagenode), and centrifuged (10 minutes, 13000 rpm, RT).
Aliquots of chromatin were de-crosslinked in 0.5×TBE buffer (supplemented with 0.5 mg/ml proteinase K (Qiagen)) for 1 hour at 65° C. and run on a 1% agarose gel to confirm target fragment size of 200-800 bp.
The remaining chromatin was divided into ChIP and input samples. ChIP samples were diluted 10× in dilution buffer (16.7 mM Tris pH 8.0, 1.0% Triton, 1.2 mM EDTA, 167 mM NaCl, 1×PIC in MilliQ) and 1 μg of ChIP-grade antibody (Diagenode) was added. The samples were rotated overnight at 4° C.
Magnetic protein A/G beads (Dynabeads) were washed 2 times in dilution buffer supplemented with 0.15% SDS and 0.1% BSA. The washed beads were added to the ChIP samples and rotated at 4° C. for 1 hour. […]

Q: For IL4: recombinant human interleukin 4, which CD1c expression (Macrophages; IL4-trained cells vs untrained cells and moDCs) is on record?
A: slightly more CD1c than untrained cells, but far less than moDCs

Q: What about the CD14 expression (Macrophages; IL4 training, day 6) of the same substance?
A: strong downregulation

Q: What about the CD80 expression (Macrophages; IL4 training, day 6) of the same substance?
A: marginally increased

Q: What about the CD200R expression (Macrophages; IL4 training, day 6) of the same substance?
A: significantly enhanced

Q: And the CD206 expression (Macrophages; IL4 training, day 6)?
A: significantly enhanced

Q: And the “H3K9me3 at TNF (AUC analysis of primer pairs)” value (TNF)?
A: a decrease of H3K9me3
